Holding throughout (type): cell-based
Experiment [1] relates to 15 colorectal cancer cell lines. The experiment is described as follows: In vitro proliferation, summary over the cell line panel. To be noted: single agents. The method, then:
(§1) COMPOUNDS A, B, and C were dissolved in 100% DMSO (Sigma, Catalog number D2650) at concentrations of 20 mM and stored at −20° C. until use. Compounds were arrayed in drug master plates (Greiner, Catalog number 788876) and serially diluted 3-fold (7 steps) at 2000× concentration.
(§2) Colorectal cancer cell lines used for this study were obtained, cultured and processed from commercial vendors ATCC, CellBank Australia, DMSZ, ECACC, and HSRRB (Table 1). All cell line media were supplemented with 10% FBS (HyClone, Catalog number SH30071.03). Media for LIM2551 was additionally supplemented with 0.6 μg/mL Insulin (SIGMA, Catalog number 19278), 1 μg/mL Hydrocortisone (SIGMA, Catalog number H0135), and 10 μM 1-Thioglycerol (SIGMA, Catalog number M6145).
(§3) Cell lines were cultured in 37° C. and 5% CO2 incubator and expanded in T-75 flasks. In all cases cells were thawed from frozen stocks, expanded through ≥1 passage using 1:3 dilutions, counted and assessed for viability using a ViCell counter (Beckman-Coulter) prior to plating. To split and expand cell lines, cells were dislodged from flasks using 0.25% Trypsin-EDTA (GIBCO, Catalog number 25200). All cell lines were determined to be free of mycoplasma contamination as determined by a PCR detection methodology performed at Idexx Radil (Columbia, Mo., USA) and correctly identified by detection of a panel of SNPs.
To test the effect of the combination of COMPOUND A, COMPOUND B, and COMPOUND C on cell proliferation cells were plated in black 384-well microplates with clear bottom (Matrix/Thermo Scientific, Catalog number 4332) in 50 μL media per well at cell densities between 500 and 1250 cells/well (Table 1) and allowed to incubate at 37 degrees, 5% CO2 for 24 h. […] Caspase 3/7 induction was measured as a proxy for apoptosis induced by the treatments. Cells were treated for 72 h to 96 h depending on their doubling time (Table 1), and Caspase 3/7 activation was measured every 24 h by microscopy using an InCell Analyzer 2000 (GE Healthcare) equipped with a 4× objective and FITC excitation/emission filters. […]

The next experiment concerns SW837. The experiment is described as follows: In vitro proliferation (cell count by microscopy), single agents and combination. The note with it: Homo sapiens; SW837 (KRAS), 72 h treatment; 50% of cell counts relative to DMSO. Here is the method:
as §1, §2, §3
(§4) To test the effect of the combination of COMPOUND A, COMPOUND B, and COMPOUND C on cell proliferation cells were plated in black 384-well microplates with clear bottom (Matrix/Thermo Scientific, Catalog number 4332) in 50 μL media per well at cell densities between 500 and 1250 cells/well (Table 1) and allowed to incubate at 37 degrees, 5% CO2 for 24 h. After 24 h one 384-well plate per cell line was prepared for cell counting by microscopy (see below) without receiving treatment (=‘baseline’). The other cell plates were treated by transferring 25 nL of the 2000× compound from drug master plates using an ATS acoustic liquid dispenser (ECD Biosystems) and resulting in a final 1× concentration. COMPOUND A was used over a final concentration range of 13 nM-10 μM, COMPOUND B was used over a final concentration range of 13 nM-10 μM, and COMPOUND C was used over a final concentration range of 27 nM-20 μM (7 1:3 dilution steps). In order to assess the effect of the triple combination all individual COMPOUNDS (A, B, C), all three pair wise combinations (A+B, A+C, B+C), and the triple combination (A+B+C) were tested in the same experiment. Pair wise combinations and the triple combination were tested at a fixed ratio of 1:1 (for drug pairs) and 1:1:1 (for the drug triple) at each dilution resulting in 7 combination conditions per treatment. […] After compound addition 50 nL of 2 mM CellEvent Caspase-3/7 Green Detection Reagent (ThermoFisher, Catalog number C10423) were added to one of the three replicates using the HP D300 Digital Dispenser (Tecan). Caspase 3/7 induction was measured as a proxy for apoptosis induced by the treatments. Cells were treated for 72 h to 96 h depending on their doubling time (Table 1), and Caspase 3/7 activation was measured every 24 h by microscopy using an InCell Analyzer 2000 (GE Healthcare) equipped with a 4× objective and FITC excitation/emission filters. At the end of the treatment cells were prepared for cell counting by microscopy. Cells were fixed and permeabilised for 45 minutes in 4% PFA (Electron Microscopy Sciences, Catalog number 15714), 0.12% TX-100 (Electron Microscopy Sciences, Catalog number 22140) in PBS (Boston Bioproducts, Catalog number BM-220). After washing cells three times with PBS their DNA was stained for 30 minutes with Hoechst 33342 (ThermoFisher, Catalog number H3570) at a final concentration of 4 μg/mL. Cells were washed three times with PBS and then plates were heat-sealed using a PlateLoc (Agilent Technologies) with aluminum seals (Agilent Technologies, Catalog number 06644-001) and stored at 4° C. until imaging. […]

The next experiment relates to SW480. The experiment is described as above. To be noted: Homo sapiens; SW480 (KRAS), 72 h treatment; 50% of cell counts relative to DMSO. Here is the method: as §1, §2, §3, §4
The subject of a further experiment is GP2d. Described as above. To be noted: GP2d (KRAS, PIK3CA), 72 h treatment; 50% of cell counts relative to DMSO. The method, then:
as §1, §2, §3, §4

The next experiment has as its system COLO-205. The description is as above. To be noted: Homo sapiens; COLO-205 (BRAF), 72 h treatment; 50% of cell counts relative to DMSO. The method, then:
as §1, §2, §3, §4

In another experiment the test system is LoVo. Described as above. The note with it: Homo sapiens; LoVo (KRAS), 96 h treatment; 50% of cell counts relative to DMSO. The method, then:
as §1, §2, §3, §4

Another experiment concerns HT-29. The description is as above. The note with it: Homo sapiens; HT-29 (BRAF, PIK3CA), 72 h treatment; 50% of cell counts relative to DMSO. Here is the method: as §1, §2, §3, §4
For a further experiment, the system named is LIM2551. Described as above. The note with it: LIM2551 (BRAF, PIK3CA), 72 h treatment; 50% of cell counts relative to DMSO. The method, then:
as §1, §2, §3, §4

The test system of a further experiment is LS411N. Described as above. To be noted: Homo sapiens, LS-411N; LS411N (BRAF), 72 h treatment; 50% of cell counts relative to DMSO. The method, then:
as §1, §2, §3, §4

The test system of another experiment is LS-180. The experiment is described as above. To be noted: Homo sapiens, LS180; LS-180 (KRAS, PIK3CA), 72 h treatment; 50% of cell counts relative to DMSO. Here is the method:
as §1, §2, §3, §4

The next experiment concerns COLO-320. The description is as above. To be noted: Homo sapiens; COLO-320 (no driver mutation listed), 72 h treatment; 50% of cell counts relative to DMSO. The method, then:
as §1, §2, §3, §4

Another experiment relates to OUMS-23. Described as above. To be noted: OUMS-23 (BRAF), 72 h treatment; 50% of cell counts relative to DMSO. Here is the method:
as §1, §2, §3, §4

A further experiment has as its system HCT-116. Described as above. The note with it: Homo sapiens; HCT-116 (KRAS, PIK3CA), 72 h treatment; 50% of cell counts relative to DMSO. The method, then: as §1, §2, §3, §4
For another experiment, the system named is DLD-1. Described as above. To be noted: Homo sapiens; DLD-1 (KRAS, PIK3CA), 72 h treatment; 50% of cell counts relative to DMSO. Here is the method:
as §1, §2, §3, §4

The test system of another experiment is NCI-H508. The experiment is described as above. To be noted: Homo sapiens; NCI-H508 (PIK3CA), 72 h treatment; 50% of cell counts relative to DMSO. Here is the method: as §1, §2, §3, §4
Another experiment deals with RKO. The experiment is described as above. The note with it: Homo sapiens; RKO (BRAF, PIK3CA), 72 h treatment; 50% of cell counts relative to DMSO. Here is the method:
as §1, §2, §3, §4

Where only a bound is given, the exact number is not on record here.

With `Cc1nc(NC(=O)N2CCC[C@H]2C(N)=O)sc1-c1ccnc(C(C)(C)C(F)(F)F)c1` [COMPOUND A, (S)-Pyrrolidine-1,2-dicarboxylic acid 2-amide 1-({4-methyl-5-[2-(2,2,2-trifluoro-1,1-dimethyl-ethyl)-pyridin-4-yl]-thiazol-2-yl}-amide)], the “IC50 values across the cell lines (summary in words)” value in experiment [1] is on record as “mostly micromolar IC50 values”.
On the same count and under the same terms, under `CN(C)C(=O)c1cc2cnc(Nc3ccc(N4CCNCC4)cn3)nc2n1C1CCCC1` [COMPOUND B, 7-Cyclopentyl-2-(5-piperazin-1-yl-pyridin-2-ylamino)-7H-pyrrolo[2,3-d]pyrimidine-6-carboxylic acid dimethylamide] stands “mostly micromolar IC50 values”.
Usually IC50 stands for the concentration that gives 50% inhibition. Consider `O=c1[nH]cc(F)c(=O)[nH]1` [COMPOUND C, 5-fluoro-2,4-(1H,3H) pyrimidinedione], for which the “IC50 values across the cell lines (summary in words)” value in experiment [1] is given as “micromolar IC50s in all but one cell line (SW480)”. The IC50 with SW837 is 7.7 µM; in the experiment with SW480, > 20 µM; with GP2d, 3.2 µM; in the experiment with COLO-205 it was 0.6 µM; in the experiment on LoVo, 5.6 µM; in the experiment on HT-29, 7.4 µM. For the same compound, the IC50 in the experiment with LIM2551 came to 4.2 µM; in the experiment with LS411N, 4.1 µM; with LS-180, 14 µM; with COLO-320, 2.4 µM; in the experiment on OUMS-23, 10.4 µM; with HCT-116, 5.6 µM. For the same compound, the IC50 in the experiment on DLD-1 was found to be 6.6 µM; with NCI-H508, 3.3 µM; in the experiment on RKO, 2.1 µM.

These data come from US10328066B2, “Pharmaceutical combination comprising the PI3K inhibitor alpelisib and the CDK4/6 inhibitor ribociclib, and the use thereof in the treatment/prevention of cancer” (Novartis AG, priority 2015, dated 2019).
